What all share (assay): NCI 60 cell line screen
In one assay the test system is NCI-H322M. Format: cell-based. As to conditions: Non-Small Cell Lung Cancer, single concentration 10^−5 M. The essentials:
(§1)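 Compounds were sent to NCI, applied to the 60-line cancer panel at 10^-5 M, and scored for cytotoxic effect.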

The subject of the next assay is A549/ATCC. The assay is classed as cell-based. The settings on record: Non-Small Cell Lung Cancer, single concentration 10^−5 M. The essentials:
as §1

In the next assay the test system is ACHN. The assay is classed as cell-based. As to conditions: Renal Cancer, single concentration 10^−5 M. The method, boiled down: as §1
Another assay has as its system 786-0. Format: cell-based. As to conditions: 786-0, Renal Cancer; single concentration 10^−5 M. The essentials:
as §1

The test system of the next assay is SK-MEL-28. Format: cell-based. The settings on record: SK-MEL-28, Melanoma; single concentration 10^−5 M. The essentials:
as §1

A further assay has as its system NCI-H226. The assay is classed as cell-based. As to conditions: NCI-H226, Non-Small Cell Lung Cancer; single concentration 10^−5 M. The essentials:
as §1

The subject of a further assay is SF-539. Format: cell-based. As to conditions: SF-539, CNS Cancer; single concentration 10^−5 M. The method, boiled down:
as §1

A further assay relates to HOP-92. Format: cell-based. As to conditions: HOP-92, Non-Small Cell Lung Cancer; single concentration 10^−5 M. The essentials: as §1
The test system of a further assay is MDA-MB-468. The assay is classed as cell-based. As to conditions: MDA-MB-468, Breast Cancer; single concentration 10^−5 M. The method, boiled down: as §1
The subject of another assay is NCI-H23. Format: cell-based. As to conditions: NCI-H23, Non-Small Cell Lung Cancer; single concentration 10^−5 M. The essentials: as §1
Another assay deals with HCT-15. The assay is classed as cell-based. The settings on record: HCT-15, Colon Cancer; single concentration 10^−5 M. The essentials: as §1
A further assay relates to EKVX. Format: cell-based. As to conditions: Non-Small Cell Lung Cancer, single concentration 10^−5 M. The essentials:
as §1

Another assay has as its system SK-MEL-5. The assay is classed as cell-based. The settings on record: SK-MEL-5, Melanoma; single concentration 10^−5 M. The essentials: as §1
Another assay deals with A498. The assay is classed as cell-based. The settings on record: A498, Renal Cancer; single concentration 10^−5 M. The essentials:
as §1

The next assay deals with NCI/ADR-RES. Format: cell-based. The settings on record: Ovarian Cancer, single concentration 10^−5 M. The essentials:
as §1

The next assay has as its system UACC-62. Format: cell-based. As to conditions: UACC-62, Melanoma; single concentration 10^−5 M. The essentials:
as §1

For the next assay, the system named is OVCAR-3. Format: cell-based. The settings on record: OVCAR-3, Ovarian Cancer; single concentration 10^−5 M. The method, boiled down: as §1
For a further assay, the system named is SK-OV-3. Format: cell-based. The settings on record: SK-OV-3, Ovarian Cancer; single concentration 10^−5 M. The essentials:
as §1

In a further assay the test system is UACC-257. The assay is classed as cell-based. The settings on record: UACC-257, Melanoma; single concentration 10^−5 M. The method, boiled down:
as §1

For another assay, the system named is OVCAR-4. The assay is classed as cell-based. The settings on record: OVCAR-4, Ovarian Cancer; single concentration 10^−5 M. The essentials:
as §1

In a further assay the test system is OVCAR-8. Format: cell-based. The settings on record: OVCAR-8, Ovarian Cancer; single concentration 10^−5 M. The essentials:
as §1

The subject of another assay is HCT-116. Format: cell-based, human. The settings on record: HCT-116, Colon Cancer; single concentration 10^−5 M. How it is done:
The cytotoxic activity of nortopsintin analogs (4a-4j) was determined by the national cancer institute (NCI, Bethesda, Maryland, USA) against 60 different cancer cell lines at a single concentration of (10^-5 M). For the determination of IC50 value, we used MTT assay kit (Sigma) according to the manufacturer's protocol. HCT-116 cells were seeded into a 96-well plate at a concentration of 20,000 cells/well. After 24 h, the media was aspirated and replaced with serum-free media containing serial dilutions of the 4i compound. […] The percentage of cytotoxicity was calculated using the following equation: % Cytotoxicity = [1 - ([…])] × 100.

Consider `N#Cc1c(-c2ccccc2)cc(-c2c[nH]c3ccccc23)nc1-c1c[nH]c2ccccc12` [4a], for which the Growth % with NCI-H322M worked out at 105.41%; in the assay on A549/ATCC, 98.73%; in the assay with ACHN it was 96.37%; in the assay on 786-0, 102.19%; in the assay with SK-MEL-28, 109.51%; in the assay on NCI-H226, 89.89%. Moreover, the Growth % was determined as 98.60% in the assay on SF-539; 92.10% in the assay on HOP-92; 93.05% in the assay with MDA-MB-468; 95.64% in the assay on NCI-H23; 99.26% in the assay on HCT-15; 83.07% in the assay on EKVX. Further, the Growth % is 99.18% with SK-MEL-5; 98.67% in the assay with A498; 98.30% in the assay on NCI/ADR-RES; 94.92% in the assay with UACC-62; 109.77% in the assay with OVCAR-3; 93.31% in the assay with SK-OV-3. The Growth % amounted to 106.98% with UACC-257, 103.65% with OVCAR-4, 98.73% with OVCAR-8 and 103.11% with HCT-116.
On to `N#Cc1c(-c2ccc(Br)cc2)cc(-c2c[nH]c3ccccc23)nc1-c1c[nH]c2ccccc12` [4b], for which the Growth % was 104.62% with NCI-H322M; 98.58% in the assay on A549/ATCC; 99.45% in the assay with ACHN; 101.55% in the assay with 786-0; 112.22% in the assay on SK-MEL-28; 87.72% in the assay on NCI-H226. The Growth % in the assay with SF-539 is 97.32%; in the assay on HOP-92, 92.57%; with MDA-MB-468, 104.30%; with NCI-H23 it was 93.93%; with HCT-15 it was 97.86%; in the assay on EKVX, 85.89%. In addition, the Growth % with SK-MEL-5 came to 97.46%; in the assay on A498, 95.35%; in the assay on NCI/ADR-RES it was 99.61%; in the assay with UACC-62, 94.51%; in the assay with OVCAR-3, 102.43%; in the assay with SK-OV-3, 100.81%. In addition, the Growth % came out at 107.82% in the assay on UACC-257, 102.16% with OVCAR-4, 96.50% with OVCAR-8 and 104.37% with HCT-116.
Take `N#Cc1c(-c2ccc(F)cc2)cc(-c2c[nH]c3ccccc23)nc1-c1c[nH]c2ccccc12` [4d]: the Growth % was determined as 106.25% in the assay on NCI-H322M; 101.42% in the assay on A549/ATCC; 101.89% with ACHN; 99.50% with 786-0; 106.51% in the assay on SK-MEL-28; 94.04% in the assay on NCI-H226. The Growth % in the assay with SF-539 worked out at 100.06%; in the assay on HOP-92, 93.44%; in the assay on MDA-MB-468, 99.29%; with NCI-H23, 100.43%; in the assay on HCT-15 it was 99.59%; in the assay on EKVX, 92.76%. The Growth % with SK-MEL-5 is listed as 100.33%; with A498, 89.44%; in the assay on NCI/ADR-RES, 103.38%; with UACC-62 it was 98.33%; with OVCAR-3, 102.48%; with SK-OV-3, 96.90%. Further, the Growth % in the assay with UACC-257 is given as 107.07%; in the assay with OVCAR-4 it was 101.04%; in the assay with OVCAR-8, 100.20%; in the assay on HCT-116 it was 104.67%.
For `COc1ccc(-c2cc(-c3c[nH]c4ccccc34)nc(-c3c[nH]c4ccccc34)c2C#N)cc1` [4e], the Growth % with NCI-H322M came to 108.08%; in the assay on A549/ATCC, 99.97%; in the assay with ACHN, 95.12%; in the assay with 786-0 it was 102.90%; in the assay with SK-MEL-28, 108.94%; in the assay with NCI-H226, 92.14%. Further, the Growth % with SF-539 amounted to 93.61%; with HOP-92, 82.07%; with MDA-MB-468, 102.09%; in the assay with NCI-H23, 103.56%; in the assay with HCT-15, 89.77%; in the assay on EKVX, 91.11%. Besides, the Growth % with SK-MEL-5 stood at 97.12%; in the assay on A498 it was 108.69%; with NCI/ADR-RES, 108.38%; with UACC-62, 95.53%; in the assay on OVCAR-3, 96.29%; in the assay on SK-OV-3, 94.59%. In addition, the Growth % with UACC-257 is listed as 107.78%; with OVCAR-4, 106.10%; in the assay on OVCAR-8, 98.49%; with HCT-116, 106.07%.
As to `N#Cc1c(-c2ccc(Cl)cc2)cc(-c2c[nH]c3ccccc23)nc1-c1c[nH]c2ccccc12` [4c], the Growth % with NCI-H322M was 103.02%; in the assay with A549/ATCC it was 100.29%; with ACHN, 101.81%; in the assay with 786-0, 102.38%; in the assay with SK-MEL-28 it was 103.30%; in the assay on NCI-H226, 96.15%. Further, the Growth % is 98.85% with SF-539; 99.01% in the assay with HOP-92; 102.95% with MDA-MB-468; 89.48% in the assay on NCI-H23; 98.27% with HCT-15; 87.50% in the assay with EKVX. The Growth % turned out to be 99.39% with SK-MEL-5; 97.38% in the assay with A498; 98.53% with NCI/ADR-RES; 89.22% in the assay on UACC-62; 107.09% in the assay with OVCAR-3; 91.24% with SK-OV-3. Also, the Growth % in the assay with UACC-257 came to 108.88%; in the assay with OVCAR-4 it was 106.75%; in the assay on OVCAR-8, 101.97%; with HCT-116, 106.26%.
With `COc1cc(-c2cc(-c3c[nH]c4ccccc34)nc(-c3c[nH]c4ccccc34)c2C#N)cc(OC)c1OC` [4g], the Growth % in the assay with NCI-H322M is given as 93.11%; with A549/ATCC, 99.60%; with ACHN, 98.52%; in the assay on 786-0, 102.99%; with SK-MEL-28 it was 107.46%; with NCI-H226, 87.22%. The Growth % in the assay on SF-539 came to 93.66%; with HOP-92 it was 92.84%; in the assay with MDA-MB-468, 93.79%; with NCI-H23, 93.03%; in the assay on HCT-15, 100.84%; in the assay on EKVX, 87.27%. Further, the Growth % was found to be 98.25% with SK-MEL-5; 103.11% in the assay on A498; 100.17% in the assay on NCI/ADR-RES; 87.61% with UACC-62; 102.73% in the assay with OVCAR-3; 97.19% with SK-OV-3. Moreover, the Growth % worked out at 104.77% in the assay with UACC-257, 103.83% with OVCAR-4, 98.26% in the assay with OVCAR-8 and 104.41% in the assay on HCT-116.
As to `COc1cc(OC)cc(-c2cc(-c3c[nH]c4ccccc34)nc(-c3c[nH]c4ccccc34)c2C#N)c1` [4f], the Growth % in the assay with NCI-H322M worked out at 104.89%; in the assay with A549/ATCC, 98.51%; in the assay on ACHN, 97.24%; with 786-0, 104.74%; with SK-MEL-28, 100.94%; in the assay on NCI-H226 it was 87.28%. Besides, the Growth % with SF-539 is 94.25%; in the assay with HOP-92, 95.02%; in the assay with MDA-MB-468 it was 92.23%; in the assay with NCI-H23, 103.68%; with HCT-15, 101.68%; with EKVX it was 91.45%. Also, the Growth % in the assay on SK-MEL-5 is 98.48%; in the assay with A498, 96.67%; in the assay with NCI/ADR-RES, 97.14%; in the assay on UACC-62, 93.55%; with OVCAR-3, 99.19%; with SK-OV-3, 99.89%. The Growth % amounted to 112.07% with UACC-257, 101.53% in the assay on OVCAR-4, 102.00% with OVCAR-8 and 100.81% in the assay with HCT-116.
